Measured values published in patent publication US4820698A, “Antimicrobial agents and process for their manufacture” (The Procter & Gamble Company, priority 1986, dated 1989).
Values after ≈ are worked out from the molar mass of the structure shown. Read-outs that look alike come from different tables or passages of the source.

Key:
Assay type in all cases: cell-based
[1] = tested on: P. Aeruginosa (G-) ATCC 27853; test: In vitro antibacterial activity, standard microdilution MIC assay; details: P. Aeruginosa (G-) ATCC 27853, penicillin resistant
[2] = tested on: S. Aureus (G+) ATCC 27660; test: as above; details: S. Aureus (G+) ATCC 27660, penicillin resistant
[3] = tested on: S. Aureus (G+) ATCC 25923; test: as above
[4] = tested on: S. Aureus (G+) ATCC 12715; test: as above; details: S. Aureus (G+) ATCC 12715, penicillin resistant
[5] = tested on: Klebsiella (G-) Pneumoniae ATCC; test: as above
Protocol: The in vitro antibacterial activity of several tetraalkyl ethenylidenebisphosphonates, fosfomycin and Penicillin G were tested against various gram-positive and gram-negative bacteria using the standard microdilution Minimum Inhibitory Concentration (MIC) assay as disclosed in Laboratory Procedures in Clinical Microbiology (John A. Washington, editor), 281-311 (1985), incorporated herein by reference.

[6] = tested on: Clostridium (G+) perfringens ATCC 3624; test: microbe, parasite or virus in culture
[7] = tested on: Streptococcus (G+) mutans, clinical isolate (first listed); test: In vitro antibacterial activity, standard microdilution MIC assay
[8] = tested on: Streptococcus (G+) mutans, clinical isolate (second listed); test: as above
[9] = tested on: Streptococcus (G+) mutans, clinical isolate (third listed); test: as above
[10] = tested on: gram-positive microorganisms; test: In vitro antibacterial activity (MIC), comparison with fosfomycin
[11] = Pseudomonas aeruginosa, ATCC27853, read-out: MIC
[12] = Staphylococcus aureus, ATCC27660, read-out: MIC
[13] = Staphylococcus aureus, ATCC25923, read-out: MIC
[14] = Staphylococcus aureus, ATCC12715, read-out: MIC

SMILES | MIC [1] | MIC [2] | MIC [3] | MIC [4] | MIC [5] | MIC [6] | MIC [1, 11] | MIC [2, 12] | MIC [3, 13] | MIC ([6]; Clostridium, ATCC3624) | MIC [4, 14] | MIC [7] | MIC [8] | MIC [9] | antibacterial efficacy against gram-positive microorganisms compared with fosfomycin [10]
C=C(P(=O)(OC)OC)P(=O)(OC)OC [A, Tetramethyl ethenylidenebisphosphonate] | 6,300 μg/ml | 1,200 μg/ml | 430 µg/mL (≈ 1760 µM) | 1,200 μg/ml | 405 µg/mL (≈ 1660 µM) | – | – | – | – | – | – | – | – | – | –
C=C(P(=O)(OCC)OCC)P(=O)(OCC)OCC [B, Tetraethyl ethenylidenebisphosphonate] | 25,000 μg/ml | 160 µg/mL (≈ 533 µM) | 110 µg/mL (≈ 366 µM) | 180 µg/mL (≈ 600 µM) | – | 52 µg/mL (≈ 173 µM) | – | – | – | – | – | – | – | – | –
C=C(P(=O)(OCCCC)OCCCC)P(=O)(OCCCC)OCCCC [C, Tetrabutyl ethenylidenebisphosphonate] | – | – | – | – | – | – | 25000 µg/mL (≈ 60600 µM) | 6.5 µg/mL (≈ 15.8 µM) | 4.5 µg/mL (≈ 10.9 µM) | 2.1 µg/mL (≈ 5.09 µM) | 6.5 µg/mL (≈ 15.8 µM) | 1.2 µg/mL (≈ 2.91 µM) | 11 µg/mL (≈ 26.7 µM) | 11 µg/mL (≈ 26.7 µM) | superior to fosfomycin
C[C@@H]1O[C@@H]1P(=O)(O)O [D, Fosfomycin, reference compound] | – | – | – | – | – | – | 31 µg/mL (≈ 225 µM) | 180 µg/mL (≈ 1300 µM) | 56 µg/mL (≈ 406 µM) | – | 72 µg/mL (≈ 522 µM) | – | – | – | –
CC1(C)S[C@@H]2[C@H](NC(=O)Cc3ccccc3)C(=O)N2[C@H]1C(=O)O [E, Penicillin G, reference compound] | – | – | – | – | – | – | 24000 µg/mL (≈ 71800 µM) | 25000 µg/mL (≈ 74800 µM) | 25 µg/mL (≈ 74.8 µM) | – | 19000 µg/mL (≈ 56800 µM) | – | – | – | –
